Tested on: 521955-158-R2-J5-PDC complex spheroid viability
Assay: Anticancer human tumor 521955-158-R2-J5-PDC patient-derived pancreatic carcinoma cell line growth inhibition [GQUAD]
Conditions: for IC50: curve of first compound; for viability, T/C: stronger effect = lower value
Procedure, shortened: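 Multi-cell-type spheroids of tumor cells with HUVEC and mesenchymal stem cells, treated with drug combinations. Concentrations descend in half-log steps from near clinical Cmax, or from 10 microM where Cmax is unknown; viability read-out.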

[1] = second compound 0.0316 µM, first compound 0.0316 µM
[2] = second compound 0.0316 µM, first compound 0.1 µM
[3] = second compound 0.0316 µM, first compound 0.316 µM
[4] = second compound 0.0316 µM, first compound 1 µM
[5] = second compound 0.0316 µM, first compound 3.16 µM
[6] = second compound 0.0316 µM, first compound 10 µM
[7] = second compound 0.1 µM, first compound 0.0316 µM
[8] = second compound 0.1 µM, first compound 0.1 µM
[9] = second compound 0.1 µM, first compound 0.316 µM
[10] = second compound 0.1 µM, first compound 1 µM
[11] = second compound 0.1 µM, first compound 3.16 µM
[12] = second compound 0.1 µM, first compound 10 µM
[13] = second compound 0.316 µM, first compound 0.0316 µM
[14] = second compound 0.316 µM, first compound 0.1 µM
[15] = second compound 0.316 µM, first compound 0.316 µM
[16] = second compound 0.316 µM, first compound 1 µM
[17] = second compound 0.316 µM, first compound 3.16 µM
[18] = second compound 0.316 µM, first compound 10 µM
[19] = second compound 1 µM, first compound 0.0316 µM
[20] = second compound 1 µM, first compound 0.1 µM
[21] = second compound 1 µM, first compound 0.316 µM
[22] = second compound 1 µM, first compound 1 µM
[23] = second compound 1 µM, first compound 3.16 µM
[24] = second compound 1 µM, first compound 10 µM
[25] = second compound 3.16 µM, first compound 0.0316 µM
[26] = second compound 3.16 µM, first compound 0.1 µM
[27] = second compound 3.16 µM, first compound 0.316 µM
[28] = second compound 3.16 µM, first compound 1 µM
[29] = second compound 3.16 µM, first compound 3.16 µM
[30] = second compound 3.16 µM, first compound 10 µM
[31] = second compound 10 µM, first compound 0.0316 µM
[32] = second compound 10 µM, first compound 0.1 µM
[33] = second compound 10 µM, first compound 0.316 µM
[34] = second compound 10 µM, first compound 1 µM
[35] = second compound 10 µM, first compound 3.16 µM
[36] = second compound 10 µM, first compound 10 µM
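Note: spheroids exposed to agents for one week before reading.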
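Throughout, for viability, T/C: 100% = DMSO vehicle control viability.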

What does the source list for `C=CCn1c(=O)c2cnc(Nc3ccc(N4CCN(C)CC4)cc3)nc2n1-c1cccc(C(C)(C)O)n1` + CN(C)c1ccc(Nc2c3ccc(NC(=O)CCN4CCCC4)cc3nc3cc(NC(=O)CCN4CCCC4)ccc23)cc1?
IC50 (second compound 0.0316 µM): 189 nM; IC50 (second compound 0.1 µM): 208 nM; IC50 (second compound 0.316 µM): 188 nM; IC50 (second compound 1 µM): 207 nM; IC50 (second compound 3.16 µM): 201 nM; IC50 (second compound 10 µM): 401 nM; viability, T/C [1]: 112%; viability, T/C [2]: 76.5%; viability, T/C [3]: 28.2%; viability, T/C [4]: 16.8%; viability, T/C [5]: 11.2%; viability, T/C [6]: 13.4%; viability, T/C [7]: 107%; viability, T/C [8]: 85.7%; viability, T/C [9]: 29.5%; viability, T/C [10]: 15.5%; viability, T/C [11]: 14.3%; viability, T/C [12]: 12.2%; viability, T/C [13]: 82.6%; viability, T/C [14]: 80.7%; viability, T/C [15]: 24.8%; viability, T/C [16]: 11.6%; viability, T/C [17]: 14%; viability, T/C [18]: 15.2%; viability, T/C [19]: 90.5%; viability, T/C [20]: 85.2%; viability, T/C [21]: 29.5%; viability, T/C [22]: 15.9%; viability, T/C [23]: 13.4%; viability, T/C [24]: 16.2%; viability, T/C [25]: 84.6%; viability, T/C [26]: 74.4%; viability, T/C [27]: 33.7%; viability, T/C [28]: 23.3%; viability, T/C [29]: 18.6%; viability, T/C [30]: 13.5%; viability, T/C [31]: 65.1%; viability, T/C [32]: 67.6%; viability, T/C [33]: 53.3%; viability, T/C [34]: 31.6%; viability, T/C [35]: 7.79%; viability, T/C [36]: 1.53%

What does the source list for `CC(C)(O)C1CCC(Nc2ccc3ncc(-c4cccc(C(F)(F)F)c4)n3n2)CC1` (stereo unspecified) + CN(C)c1ccc(Nc2c3ccc(NC(=O)CCN4CCCC4)cc3nc3cc(NC(=O)CCN4CCCC4)ccc23)cc1?
IC50 (second compound 0.0316 µM): 2060 nM; IC50 (second compound 0.1 µM): 2010 nM; IC50 (second compound 0.316 µM): 2050 nM; IC50 (second compound 1 µM): 2010 nM; IC50 (second compound 3.16 µM): 1800 nM; IC50 (second compound 10 µM): 1280 nM; viability, T/C [1]: 102%; viability, T/C [2]: 107%; viability, T/C [3]: 105%; viability, T/C [4]: 111%; viability, T/C [5]: 13.1%; viability, T/C [6]: 19.7%; viability, T/C [7]: 101%; viability, T/C [8]: 103%; viability, T/C [9]: 98.5%; viability, T/C [10]: 117%; viability, T/C [11]: 10.4%; viability, T/C [12]: 18.7%; viability, T/C [13]: 106%; viability, T/C [14]: 88%; viability, T/C [15]: 113%; viability, T/C [16]: 113%; viability, T/C [17]: 16.1%; viability, T/C [18]: 17.5%; viability, T/C [19]: 95.4%; viability, T/C [20]: 107%; viability, T/C [21]: 95.8%; viability, T/C [22]: 116%; viability, T/C [23]: 15.1%; viability, T/C [24]: 13.6%; viability, T/C [25]: 82%; viability, T/C [26]: 87.3%; viability, T/C [27]: 79.2%; viability, T/C [28]: 99.5%; viability, T/C [29]: 13.8%; viability, T/C [30]: 15%; viability, T/C [31]: 70.4%; viability, T/C [32]: 73.1%; viability, T/C [33]: 64.6%; viability, T/C [34]: 62.2%; viability, T/C [35]: 6.61%; viability, T/C [36]: 1.12%

With `COc1ncnc(C2CC2)c1-c1ncc2cnn(Cc3ccc(-c4nc(C(F)(F)F)cn4C(C)C)cc3)c2n1` + CN(C)c1ccc(Nc2c3ccc(NC(=O)CCN4CCCC4)cc3nc3cc(NC(=O)CCN4CCCC4)ccc23)cc1 as the molecule, how does the IC50 (second compound 0.0316 µM) read?
The IC50 was greater than 10000 nM.

And the IC50 (second compound 0.1 µM)?
Its IC50 is greater than 10000 nM.

What about the IC50 (second compound 0.316 µM) of the same molecule?
Its IC50 is greater than 10000 nM.

What about the IC50 (second compound 1 µM) of the same molecule?
The IC50 was greater than 10000 nM.

And the IC50 (second compound 3.16 µM)?
The IC50 was greater than 10000 nM.

What about the IC50 (second compound 10 µM) of the same molecule?
The IC50 was 4550 nM.

And the viability, T/C [1]?
The viability, T/C was 113%.

What about the viability, T/C [2] of the same molecule?
Its viability, T/C is 103%.

What about the viability, T/C [3] of the same molecule?
The viability, T/C was 116%.

And the viability, T/C [4]?
Its viability, T/C is 114%.

What about the viability, T/C [5] of the same molecule?
The viability, T/C was 135%.

And the viability, T/C [6]?
The viability, T/C was 140%.

And the viability, T/C [7]?
The viability, T/C was 97.7%.

What about the viability, T/C [8] of the same molecule?
The viability, T/C was 112%.

And the viability, T/C [9]?
The viability, T/C was 107%.

And the viability, T/C [10]?
The viability, T/C was 112%.

And the viability, T/C [11]?
The viability, T/C was 148%.

What about the viability, T/C [12] of the same molecule?
Its viability, T/C is 122%.

What about the viability, T/C [13] of the same molecule?
The viability, T/C was 95.4%.

What about the viability, T/C [14] of the same molecule?
The viability, T/C was 123%.

And the viability, T/C [15]?
Its viability, T/C is 118%.

What about the viability, T/C [16] of the same molecule?
Its viability, T/C is 121%.

And the viability, T/C [17]?
The viability, T/C was 115%.

What about the viability, T/C [18] of the same molecule?
Its viability, T/C is 117%.

And the viability, T/C [19]?
The viability, T/C was 105%.

What about the viability, T/C [20] of the same molecule?
Its viability, T/C is 109%.

And the viability, T/C [21]?
Its viability, T/C is 115%.

And the viability, T/C [22]?
The viability, T/C was 122%.

And the viability, T/C [23]?
Its viability, T/C is 112%.

And the viability, T/C [24]?
Its viability, T/C is 115%.

What about the viability, T/C [25] of the same molecule?
Its viability, T/C is 86%.

What about the viability, T/C [26] of the same molecule?
The viability, T/C was 93%.

What about the viability, T/C [27] of the same molecule?
The viability, T/C was 101%.

What about the viability, T/C [28] of the same molecule?
Its viability, T/C is 111%.

What about the viability, T/C [29] of the same molecule?
Its viability, T/C is 114%.

What about the viability, T/C [30] of the same molecule?
The viability, T/C was 82.8%.

What about the viability, T/C [31] of the same molecule?
Its viability, T/C is 74%.

And the viability, T/C [32]?
The viability, T/C was 74.7%.

What about the viability, T/C [33] of the same molecule?
The viability, T/C was 69.5%.

What about the viability, T/C [34] of the same molecule?
The viability, T/C was 76.7%.

And the viability, T/C [35]?
Its viability, T/C is 68.1%.

What about the viability, T/C [36] of the same molecule?
The viability, T/C was 10.3%.

Reference: PubChem BioAssay AID2060495 (Molecular Pharmacology Branch, DTP, NCI, 2025)
